From US20210177828A1, “TAM FAMILY KINASE /AND CSF1R KINASE INHIBITOR AND USE THEREOF” (Nanjing Transthera Biosciences Co., Ltd., priority 2018, published 2021)

Experiments:
Tyro-3 (h) = target: T1, Tyro-3 (h) (Homo sapiens, UniProt Q06418); test: Enzymatic activity assay, Tyro-3 (h), [γ-33P]-ATP filter assay; type: biochemical; conditions: 10 μM ATP, 40 min room temperature; read-out: Inhibitory activity IC50 Tyro-3(h)
T1 sequence (Q06418 41-890): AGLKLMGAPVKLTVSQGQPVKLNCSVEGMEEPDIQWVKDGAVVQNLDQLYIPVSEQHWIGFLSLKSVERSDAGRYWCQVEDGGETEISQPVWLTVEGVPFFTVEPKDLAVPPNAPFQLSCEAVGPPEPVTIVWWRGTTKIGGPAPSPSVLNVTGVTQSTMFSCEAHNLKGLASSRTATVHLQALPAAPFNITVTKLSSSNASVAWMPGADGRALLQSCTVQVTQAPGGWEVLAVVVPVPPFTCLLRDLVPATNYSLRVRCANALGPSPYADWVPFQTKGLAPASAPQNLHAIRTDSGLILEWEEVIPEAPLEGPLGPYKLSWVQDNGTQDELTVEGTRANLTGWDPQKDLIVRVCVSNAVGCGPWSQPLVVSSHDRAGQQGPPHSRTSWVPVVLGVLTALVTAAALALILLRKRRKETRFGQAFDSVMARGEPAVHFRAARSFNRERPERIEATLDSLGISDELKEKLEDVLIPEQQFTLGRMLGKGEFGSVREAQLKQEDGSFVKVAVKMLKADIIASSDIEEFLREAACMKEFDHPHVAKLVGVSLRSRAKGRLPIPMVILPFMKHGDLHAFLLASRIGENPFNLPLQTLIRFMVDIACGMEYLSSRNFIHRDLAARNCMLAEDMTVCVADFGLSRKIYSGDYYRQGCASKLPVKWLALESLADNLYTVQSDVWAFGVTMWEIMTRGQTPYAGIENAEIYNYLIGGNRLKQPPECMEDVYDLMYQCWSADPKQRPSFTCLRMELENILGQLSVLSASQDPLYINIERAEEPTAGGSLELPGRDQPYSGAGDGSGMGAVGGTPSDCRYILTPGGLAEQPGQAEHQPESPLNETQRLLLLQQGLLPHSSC
Experimental: Compounds were each dissolved in 100% DMSO to prepare stock solutions with a maximum concentration of 500 μM.
Compound working solutions (50×) were prepared by diluting a compound stock solution to a final concentration of 500, 150, 50, 15, 5, 1.5, 0.5, 0.15 and 0.05 μM.
An enzyme solution with a final concentration of 38 nM was prepared by dissolving Tyro3 (h) enzyme in a mixture of 8 mM MOPS (pH 7.0), 0.2 mM EDTA, 1 mM MnCl2 and 250 μM KVEKIGEGTYGVVYK. A Mg/ATP mixture of 10 mM magnesium acetate and 10 μM [γ-^33P]-ATP was used to activate the enzymatic reaction.
A compound working solution was added to a 384-well plate, with final concentrations of 10,000, 3,000, 1,000, 300, 100, 30, 10, 3 and 1 nM, and then different enzymatic reaction solutions prepared according to the above conditions were added. The reaction solutions were incubated at room temperature for 40 min, and then 0.5% phosphoric acid solutions were added to terminate the reaction. 10 μL of the reaction solution was added dropwise to P30 filter paper, washed 4 times with a 0.425% phosphoric acid solution and once with methanol, and then placed in a scintillation counter for detection. Gray analysis was performed on the results with Image J software, and IC50 values were calculated with GraphPad 5.0 software.

MDA-MB-231 cell pAxl = target: T2, MDA-MB-231 cell pAxl (Homo sapiens, UniProt P30530); test: Inhibitory activity on cell pAxl, MDA-MB-231 cells, hGAS6 stimulation, Western Blot; type: cell-based; conditions: hGAS6 200 ng/mL
T2 construct: endogenous in cells; host or cells: MDA-MB-231
T2 sequence (P30530 26-894): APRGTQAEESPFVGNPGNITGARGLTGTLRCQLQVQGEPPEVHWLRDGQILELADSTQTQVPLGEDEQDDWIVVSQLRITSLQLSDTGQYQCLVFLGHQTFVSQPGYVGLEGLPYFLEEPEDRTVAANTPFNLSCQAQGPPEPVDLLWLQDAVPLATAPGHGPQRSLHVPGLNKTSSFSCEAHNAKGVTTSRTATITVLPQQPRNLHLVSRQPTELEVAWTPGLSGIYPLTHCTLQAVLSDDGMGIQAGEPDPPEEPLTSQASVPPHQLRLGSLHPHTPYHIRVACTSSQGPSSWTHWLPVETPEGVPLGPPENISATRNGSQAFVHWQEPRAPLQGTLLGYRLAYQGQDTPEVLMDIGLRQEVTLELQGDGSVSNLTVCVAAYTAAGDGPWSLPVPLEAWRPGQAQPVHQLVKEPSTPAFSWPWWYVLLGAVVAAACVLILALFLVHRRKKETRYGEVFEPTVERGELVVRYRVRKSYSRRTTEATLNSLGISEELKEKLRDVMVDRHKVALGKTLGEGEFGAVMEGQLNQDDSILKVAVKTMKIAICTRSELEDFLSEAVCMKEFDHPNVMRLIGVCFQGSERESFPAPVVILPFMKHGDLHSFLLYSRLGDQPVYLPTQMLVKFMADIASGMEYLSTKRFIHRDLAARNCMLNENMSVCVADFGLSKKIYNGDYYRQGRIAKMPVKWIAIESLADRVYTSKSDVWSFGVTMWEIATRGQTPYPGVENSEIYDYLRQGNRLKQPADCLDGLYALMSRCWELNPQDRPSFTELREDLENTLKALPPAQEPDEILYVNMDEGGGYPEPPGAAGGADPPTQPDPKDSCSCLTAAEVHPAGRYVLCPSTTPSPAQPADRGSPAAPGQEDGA
Experimental: MDA-MB-231 is a breast cancer cell.
MDA-MB-231 cells were inoculated to a 6-well plate (containing 10% FBS DMEM medium, […] cells per well) and adherently cultivated at 37° C., and 5% CO2 for 18 hrs. The cells were starved overnight, and then compound solutions with different concentrations were added. Compounds 1 and 2 had final concentrations of 1.1, 3.3 and 10 nM, and the remaining compounds had final concentrations of 1.1, 3.3, 10 and 30 nM. […] There was a medium containing 1‰DMSO in the negative control well. The cells were incubated at 37° C., and 5% CO2 for 60 min, and then hGAS6 (R&D, final concentration: 200 ng/mL) was added to each well. The cells were further incubated for 60 min, and then the total protein of the cells was extracted for Western Blot experiment. Gray analysis was performed on the results with Image J software, and IC50 values were calculated with GraphPad 5.0 software. The inhibitory activities of the compounds on cell pAxl were detected.

Row | Compound | IC50 (Tyro-3 (h)) | IC50 (MDA-MB-231 cell pAxl)
1 | COc1cc2nccc(Oc3ccc(NC(=O)c4nn(C5CCOCC5)cc(-c5ccc(C)cc5)c4=O)nc3)c2cc1OC [Compound 17, N-(5-((6,7-dimethoxyquinolin-4-yl)oxy)pyridin-2-yl)-4-oxo-1-(tetrahydro-2H-pyran-4-yl)-5-(p-tolyl)-1,4-dihydropyridazin-3-carboxamide] | 0.014 µM | < 0.0011 µM
2 | COc1cc2nccc(Oc3cnc(NC(=O)c4nn(C5CCOCC5)cc(-c5ccc(C)cc5)c4=O)nc3)c2cc1OC [Compound 18, N-(5-((6,7-dimethoxyquinolin-4-yl)oxy)pyrimidin-2-yl)-4-oxo-1-(tetrahydro-2H-pyran-4-yl)-5-(p-tolyl)-1,4-dihydropyridazin-3-carboxamide] | 0.058 µM | < 0.0011 µM
3 | COc1cc2nccc(Oc3ccc(NC(=O)c4cn(C5CCOCC5)cc(-c5ccc(C)cc5)c4=O)nc3)c2cc1OC [Compound 19, N-(5-((6,7-dimethoxyquinolin-4-yl)oxy)pyridin-2-yl)-4-oxo-1-(tetrahydro-2H-pyran-4-yl)-5-(p-tolyl)-1,4-dihydropyridin-3-carboxamide] | 0.034 µM | < 0.0011 µM
4 | COc1cc2nccc(Oc3cnc(NC(=O)c4cn(C5CCOCC5)cc(-c5ccc(C)cc5)c4=O)nc3)c2cc1OC [Compound 20, N-(5-((6,7-dimethoxyquinolin-4-yl)oxy)pyrimidin-2-yl)-4-oxo-1-(tetrahydro-2H-pyran-4-yl)-5-(p-tolyl)-1,4-dihydropyridin-3-carboxamide] | 0.084 µM | < 0.01 µM
5 | COc1cc2nccc(Oc3ccc(NC(=O)c4cn(CC5CCOCC5)cc(-c5ccc(C)cc5)c4=O)nn3)c2cc1OC [Compound 24, N-(6-((6,7-dimethoxyquinolin-4-yl)oxy)pyridazin-3-yl)-4-oxo-1-((tetrahydro-2H-pyran-4-yl)methyl)-5-(p-tolyl)-1,4-dihydropyridin-3-carboxamide] | 0.212 µM | < 0.01 µM
6 | COc1cc2nccc(Oc3ccc(NC(=O)c4cn(CC5CCOCC5)c5ccccc5c4=O)nc3)c2cc1OC [Compound 25, N-(5-((6,7-dimethoxyquinolin-4-yl)oxy)pyridin-2-yl)-4-oxo-1-((tetrahydro-2H-pyran-4-yl)methyl)-1,4-dihydroquinolin-3-carboxamide] | 0.205 µM | ≤ 0.503 µM
7 | COc1cc2nccc(Oc3ccc(NC(=O)c4cc(CC5CCOCC5)cn(-c5ccc(C)cc5)c4=O)nc3)c2cc1OC [Compound 26, N-(5-((6,7-dimethoxyquinolin-4-yl)oxy)pyridin-2-yl)-oxo-5-((tetrahydro-2H-pyran-4-yl)methyl)-1-(p-tolyl)-1,2-dihydropyridin-3-carboxamide] | 0.048 µM | < 0.0033 µM
